# According to patent publication US20060241108A1, “Substituted phenoxazines and acridones as inhibitors of AKT” (St. Jude Children's Research Hospital, priority 2005, published 2006):
# Read-outs that look alike come from different tables or passages of the source. Marks after values point to notes of the source that are not given here.
# Assays:
# [1] = tested on: mTOR (Ser2448 and Ser2481), rpS6 (Ser235/236) and p70S6 kinase (Thr389); experiment: IGF-I induced phosphorylation of AKT downstream targets in Rh1 cells, Western blot; assay type: cell-based, human; settings: 3.5 to 5.0 μM, 1 hour, Rh1 cells serum-free, IGF-I 10 minutes
# Method: Cellular screening for inhibitors. Rh1, Rh18 and Rh30 cells can each be seeded at a density of 4×10^6/10-cm plate in serum-free medium for overnight attachment. The cells can then be exposed to 0.1% DMSO or to a test compound (for example, a phenoxazine or acridone compound) for one hour, then stimulated with Insulin-like growth factor-I (IGF-I) (10 ng/ml) for 10 minutes.
# Western blot analysis. Cells are rapidly washed with ice-cold phosphate-buffered saline (PBS), placed on ice, and lysed in mammalian protein extraction reagent (M-PER; available from Pierce, Rockford, Ill.) containing one Complete™ mini protease inhibitor tablet (available from Boehringer Mannheim, Mannheim, Germany), 1 mM phenylmethylsulfonyl fluoride, 1 mM Na3VO4 and 1 mM NaF. Cellular debris is pelleted by centrifugation at 17,500×g for 10 minutes at 4° C. The protein concentration of the supernatants is measured by the bicinchoninic acid assay (e.g., using the BCA™ Protein Assay Kit, Pierce, Rockford, Ill., catalog number 23225 or 23227) using bovine serum albumin as the standard.
# For the analysis of AKT, ERK-1/2, mTOR, p70S6 kinase, ribosomal protein S6 (rpS6 or S6), and glycogen synthase kinase 3 (GSK-3), equivalent amounts of protein can be separated on a 12% SDS-polyacrylamide gel (available from BioRad, Hercules, Calif.) by electrophoresis and subsequently transferred to a nitrocellulose membrane (also available from BioRad). […]
# Rh1 cells [2] = settings: 6.5 µM
# Method: (§1) Determination of apoptosis. An ApoAlert™ Annexin V-FITC Apoptosis kit (available from Clontech, Palo Alto, Calif.) can be used to evaluate the extent of apoptosis within cell populations. Cells (Rh1: 350,000 per 75-cm^2 flask; Rh18: 800,000 per 75-cm^2 flask; or Rh30: 500,000 per 75-cm^2 flask) are preferably grown overnight in complete medium. On day 1, cells are treated with DMSO (0.1%; vehicle control) or with a test compound (e.g., a phenoxazine or acridone compound). After 4 days, the cells are trypsinized, washed with PBS, and resuspended in 200 μl of binding buffer. Cells are then incubated with 10 μl of annexin V-FITC (final concentration, 1 μg/ml) and 500 ng of propidium iodide in a final volume of 410 μl. Cells are preferably incubated at room temperature in the dark for ten minutes before flow cytometric analysis with an FACSCalibur™ Flow Cytometry System (Becton Dickinson, San Jose, Calif.).
# (§2) For instance, Rh1, Rh18 and/or Rh30 cells can be grown in complete medium with 0.1% DMSO (as a negative control) or with one or more test compounds, e.g., any of the phenoxazine compounds listed in Table I, above, including but not limited to the compounds 10B, 11B, 13B, 14B or 15B. […] Cells are then harvested, and the extent of apoptosis evaluated, e.g., by an ApoAlert™ (Clontech, Palo Alto, Calif.) flow cytometric assay.
# Rh18 cells = settings: 7.5 µM
# Method: as §1, §2
# Rh30 cells = settings: 7.5 µM
# Method: as §1, §2
# Rh1 cells [3] = experiment: Determination of apoptosis (Annexin V-FITC/propidium iodide flow cytometry), Rh1 cells; settings: Rh1, 6.5 μM, four days, n = 3
# Method: as §1, §2
Molecule,"inhibition of IGF-I induced phosphorylation of mTOR, rpS6 and p70S6 kinase [1]","Percentage of cells ± SD, Viable (Rh1 cells [2])","Percentage of cells ± SD, Viable (Rh18 cells)","Percentage of cells ± SD, Viable (Rh30 cells)","Percentage of cells ± SD, Viable (Rh1 cells [3])"
10-[4′-[(β-hydroxyethyl)piperazino]butyl]-2-chlorophenoxazine [Compound 15B],markedly inhibited,23.33 ± 8.66^d %,67.00 ± 7.48%,11.00 ± 2.16^d %,–
"CCN(CC)CCCCN1c2ccccc2Oc2ccc(Cl)cc21 [Compound 10B, 10-[4′-(N-diethylamino)butyl]-2-chlorophenoxazine]",markedly inhibited,–,–,–,47.70 ± 7.90%
